Measured values published in ChEMBL document CHEMBL5033996, “Design, Synthesis, and Bioactivity Evaluation of Dual-Target Inhibitors of Tubulin and Src Kinase Guided by Crystal Structure” (J Med Chem, 2021).
Calls of active or inactive are those of the source. The rule behind the calls is not given here.

Assays:
SK-OV-3 [1] = experiment: Antiproliferative activity against human SK-OV-3 cells assessed as inhibition of cell proliferation measured after 72 hrs by MTT assay; format: functional, cell-based; settings: SK-OV-3, 72 h
Ramos = experiment: Antiproliferative activity against human Ramos cells assessed as inhibition of cell proliferation measured after 72 hrs by MTT assay; format: functional, cell-based
K562 = experiment: Antiproliferative activity against human K562 cells assessed as inhibition of cell proliferation measured after 72 hrs by MTT assay; format: functional, cell-based; settings: K562, 72 h
SK-OV-3 [2] = experiment: Induction of mitotic block in human SK-OV-3 cells at 10 to 30 nM in absence of colchicine measured immediately by flow cytometry analysis; format: functional, cell-based; settings: dose 10-30 nM
[3] = Antitumor activity against mouse C26 cells xenografted in BALB/c mouse assessed as tumor growth inhibition at 10 mg/kg, po measured every 2 days for 10 days by vernier caliper analysis relative to control; format: functional; settings: 240 h, time 10 day, read-out: TGI
[4] = Toxicity in C57 mouse at 40 mg/kg, po administered twice daily; format: organism-based; settings: in vivo
[5] = Oral bioavailability in Sprague-Dawley rat at 5 mg/kg measured up to 24 hrs by LC/MS/MS analysis; format: ADME, organism-based; settings: in vivo
[6] = AUC (0 to t) in Sprague-Dawley rat at 5 mg/kg, po measured up to 24 hrs by LC/MS/MS analysis; format: ADME, organism-based; set-up: route oral, dose 5 mg/kg, time <=24; settings: in vivo
[7] = Half life in Sprague-Dawley rat at 5 mg/kg, po measured up to 24 hrs by LC/MS/MS analysis; format: ADME, organism-based; settings: in vivo
Tubulin = experiment: Binding affinity to tubulin (unknown origin) assessed as dissociation constant by tryptophan based binding assay; format: protein-complex assay, Homo sapiens
[8] = Tmax in Sprague-Dawley rat at 5 mg/kg, po measured up to 24 hrs by LC/MS/MS analysis; format: ADME, organism-based; settings: in vivo
[9] = Half life in human liver microsomes; format: ADME, Microsome
[10] = target: Proto-oncogene tyrosine-protein kinase Src (Homo sapiens) (UniProt P12931); experiment: Inhibition of Src kinase phosphorylation at Tyr416/419 residue in human SK-OV-3 cells incubated for 24 hrs by Western blot analysis; format: cell-based
[11] = target: Focal adhesion kinase 1 (Homo sapiens) (UniProt Q05397); experiment: Inhibition of FAK phosphorylation at […] residue in human SK-OV-3 cells incubated for 24 hrs by Western blot analysis; format: cell-based
[12] = Intrinsic clearance in human liver microsomes; format: ADME, Microsome
[13] = Clearance in Sprague-Dawley rat at 5 mg/kg, po measured up to 24 hrs by LC/MS/MS analysis; format: ADME, organism-based; settings: in vivo
[14] = Cmax in Sprague-Dawley rat at 5 mg/kg, po measured up to 24 hrs by LC/MS/MS analysis; format: ADME, organism-based; set-up: route oral, dose 5 mg/kg, time <=24; settings: in vivo

Chain of Proto-oncogene tyrosine-protein kinase Src (Homo sapiens) (P12931 2-536 limits assumed): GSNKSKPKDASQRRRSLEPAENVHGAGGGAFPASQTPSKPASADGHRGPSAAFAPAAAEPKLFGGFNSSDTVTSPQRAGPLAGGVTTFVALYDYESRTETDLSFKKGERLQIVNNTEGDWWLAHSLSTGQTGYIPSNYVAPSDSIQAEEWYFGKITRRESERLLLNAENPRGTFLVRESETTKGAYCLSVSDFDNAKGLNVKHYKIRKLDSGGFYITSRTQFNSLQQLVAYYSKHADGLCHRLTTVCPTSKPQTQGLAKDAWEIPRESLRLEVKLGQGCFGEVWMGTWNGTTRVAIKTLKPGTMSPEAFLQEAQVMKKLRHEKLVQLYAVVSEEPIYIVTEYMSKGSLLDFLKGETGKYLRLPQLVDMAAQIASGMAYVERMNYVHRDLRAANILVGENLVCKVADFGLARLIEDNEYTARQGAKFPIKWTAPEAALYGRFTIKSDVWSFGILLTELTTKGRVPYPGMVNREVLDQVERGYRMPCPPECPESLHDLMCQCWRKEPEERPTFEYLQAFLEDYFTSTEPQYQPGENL
Chain of Focal adhesion kinase 1 (Homo sapiens) (Q05397 2-1052 limits assumed): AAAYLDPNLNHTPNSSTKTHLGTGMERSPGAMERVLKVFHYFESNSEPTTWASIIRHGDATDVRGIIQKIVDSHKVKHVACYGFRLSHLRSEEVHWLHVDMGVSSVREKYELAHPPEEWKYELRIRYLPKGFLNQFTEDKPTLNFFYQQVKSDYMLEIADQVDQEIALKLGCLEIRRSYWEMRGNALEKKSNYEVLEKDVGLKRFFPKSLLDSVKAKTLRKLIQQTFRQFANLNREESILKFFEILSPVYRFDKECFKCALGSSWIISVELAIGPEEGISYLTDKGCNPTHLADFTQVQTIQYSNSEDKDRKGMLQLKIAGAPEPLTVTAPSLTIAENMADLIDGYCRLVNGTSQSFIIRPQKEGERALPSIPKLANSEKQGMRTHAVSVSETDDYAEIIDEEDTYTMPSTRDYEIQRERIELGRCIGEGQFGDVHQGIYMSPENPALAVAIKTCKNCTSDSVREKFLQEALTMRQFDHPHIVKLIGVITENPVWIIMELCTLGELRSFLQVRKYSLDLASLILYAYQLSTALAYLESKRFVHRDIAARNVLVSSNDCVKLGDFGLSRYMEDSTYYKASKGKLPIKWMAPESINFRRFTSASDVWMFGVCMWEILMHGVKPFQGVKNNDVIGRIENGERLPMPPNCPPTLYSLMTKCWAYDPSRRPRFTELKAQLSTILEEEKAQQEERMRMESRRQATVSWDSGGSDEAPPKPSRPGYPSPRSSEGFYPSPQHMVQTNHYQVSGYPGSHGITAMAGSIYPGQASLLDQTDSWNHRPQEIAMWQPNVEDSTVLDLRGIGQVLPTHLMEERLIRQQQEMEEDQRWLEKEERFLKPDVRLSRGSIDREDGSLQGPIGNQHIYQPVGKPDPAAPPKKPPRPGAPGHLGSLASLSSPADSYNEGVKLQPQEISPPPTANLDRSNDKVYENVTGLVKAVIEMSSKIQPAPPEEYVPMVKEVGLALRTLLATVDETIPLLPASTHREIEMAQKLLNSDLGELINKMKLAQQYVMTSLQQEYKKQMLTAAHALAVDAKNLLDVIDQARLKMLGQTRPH

Row | Structure (SMILES) | IC50 (SK-OV-3 [1]) | IC50 (Ramos) | IC50 (K562) | other results
1 | O=C(Cc1ccc(-c2ccc(OCCN3C[C@@H]4C[C@H]3CO4)cc2)cn1)NCc1ccccc1 | 0.0195 µM | 0.0258 µM | 0.0162 µM | –
2 | O=C(Cc1ccc(-c2ccc(OCCN3CCC4(CC3)CC4)cc2)cn1)NCc1ccccc1 | 0.0975 µM | > 0.1 µM | 0.0341 µM | –
3 | COc1cc2c(c(OC)c1OC)-c1ccc(OC)c(=O)cc1[C@@H](NC(C)=O)CC2 | – | – | – | Activity (SK-OV-3 [2]): inactive
4 | O=C(Cc1ccc(-c2ccc(OCCCN3CC4CCC(C3)O4)cc2)cn1)NCc1ccccc1 | 0.0071 µM | 0.0086 µM | 0.0146 µM | –
5 | O=C(Cc1ccc(-c2ccc(OCCCCN3C[C@@H]4C[C@H]3CO4)cc2)cn1)NCc1ccccc1 | 0.037 µM | 0.025 µM | 0.0532 µM | –
6 | O=C(Cc1ccc(-c2ccc(OCCNC3CC3)cc2)cn1)NCc1ccccc1 | 0.0052 µM | 0.0981 µM | 0.0293 µM | –
7 | CC(C)(C)OC(=O)N1CCN(CCOc2ccc(-c3ccc(CC(=O)NCc4ccccc4)nc3)cc2)CC1 | 0.0533 µM | 0.0159 µM | > 0.1 µM | –
8 | O=C(Cc1ccc(-c2ccc(OCCCN3CCOCC3)cc2)cn1)NCc1ccccc1 | 0.0156 µM | 0.129 µM | 0.0509 µM | –
9 | O=C(Cc1ccc(-c2ccc(OCCN3CCN(C(=O)C4CC4(F)F)CC3)cc2)cn1)NCc1ccccc1 (stereo not given) | 0.0168 µM | 0.0481 µM | 0.0535 µM | –
10 | CC(=O)N1CCN(CCOc2ccc(-c3ccc(CC(=O)NCc4ccccc4)nc3)cc2)CC1 | 0.004 µM | 0.0073 µM | 0.0144 µM | –
11 | CC1(C)C2CN(CCOc3ccc(-c4ccc(CC(=O)NCc5ccccc5)nc4)cc3)CC21 (stereo not given) | 0.165 µM | 0.0644 µM | 0.0415 µM | –
12 | O=C(Cc1ccc(-c2ccc(OCCN3CCN(S(=O)(=O)C4CC4)CC3)cc2)cn1)NCc1ccccc1 | 0.0024 µM | 0.0041 µM | 0.0058 µM | –
13 | O=C(Cc1ccc(-c2ccc(OCCN3CCN(C(=O)C4CCC4)CC3)cc2)cn1)NCc1ccccc1 | 0.00059 µM | 0.0015 µM | 0.0023 µM | inhibition in vivo at 10 mg/kg [3]: 32%; Activity [4]: Non-Toxic; bioavailability [5]: 13.3%; AUC(0-t) at 24 h [6]: 0.383 µg·h/mL; half-life [7]: 139 min; Kd (Tubulin): 0.63 µM; Tmax [8]: 8.4 min; half-life [9]: 20.6 min; inhibition [10]: Dose-Dependent Effect; inhibition [11]: Dose-Dependent Effect; CLH [12]: 67.4 mL·min/g; CL/F [13]: 12.6 L/h/kg; Cmax [14]: 0.484 µg/mL
